Measurements: US6518272B2, “Cycloalkyl-substituted aryl-piperazines, piperidines and tetrahydropyridines as serotonergic agents” (Wyeth, priority 1998, dated 2003)

Key:
[1] = tested on: depression; conditions: in vivo; cited from earlier work
[2] = biological target: T1, human 5-HT1A receptor (Homo sapiens, UniProt P08908); test: Agonist activity: inhibition of forskolin-stimulated cAMP accumulation in transfected CHO cells; type: cell-based; conditions: CHO cells with human 5-HT1A receptor
T1 construct: expressed in transfected cells; host or cells: CHO cells (stably transfected)
T1 sequence (P08908 1-422): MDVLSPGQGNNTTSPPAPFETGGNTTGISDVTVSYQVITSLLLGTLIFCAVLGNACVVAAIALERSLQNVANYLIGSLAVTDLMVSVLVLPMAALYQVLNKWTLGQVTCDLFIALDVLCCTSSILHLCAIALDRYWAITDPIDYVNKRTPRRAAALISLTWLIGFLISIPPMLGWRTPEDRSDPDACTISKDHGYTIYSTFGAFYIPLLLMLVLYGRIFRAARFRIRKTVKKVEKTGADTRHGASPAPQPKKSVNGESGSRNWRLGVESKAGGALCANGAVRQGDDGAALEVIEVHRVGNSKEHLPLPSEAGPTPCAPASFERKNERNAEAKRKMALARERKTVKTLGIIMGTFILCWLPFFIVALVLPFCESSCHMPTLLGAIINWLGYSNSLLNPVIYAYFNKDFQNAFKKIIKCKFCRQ
Source text: (§1) Methods, 40, 47-55 (1998); variation of a procedure described by J. Zgombick et al., Naunyn-Schmiedeberg's Arch. Pharmacol., 354, 226-236 (1996)].

[3] = biological target: T1, human 5-HT1A receptor; test: Displacement of [3H] 8-OHDPAT from the 5-HT1A receptor in transfected CHO cells; type: binding
Source text: Affinity for the serotonin 5-HT1A receptor was established by assaying the test compound's ability to displace [^3H] 8-OHDPAT from its binding site on the receptor complex in CHO cells stably transfected with the human 5-HT1A receptor following the procedure described by J. Dunlop, Y. Zhang, D. Smith and L. Schechter (Eur. J. Pharmacol., submitted; variation of a procedure described by J. Zgombick et al., Naunyn-Schmiedeberg's Arch. Pharmacol., 354, 226-236 (1996)).

[4] = biological target: T1, human 5-HT1A receptor; test: Antagonist activity: antagonism of 8-OHDPAT inhibition of forskolin-stimulated cAMP accumulation in transfected CHO cells; type: cell-based; conditions: CHO cells with human 5-HT1A receptor
Source text: as §1

[5] = tested on: motion sickness and xylazine- and cis-platinin-induced vomiting; conditions: cited from earlier work
[6] = tested on: LTP; conditions: cited from earlier work
[7] = tested on: impairment of spatial learning caused by intrahippocampal scopolamine; conditions: cited from earlier work
[8] = tested on: cognitive deficits induced by fornix lesions; conditions: marmosets; cited from earlier work
[9] = tested on: antidepressant response; conditions: clinical trials; co-administration with the SSRI's paroxetine and fluoxetine; cited from earlier work
[10] = tested on: human prostate tumor cell lines PC3, DU-145 and LNCaP; conditions: PC3, DU-145 and LNCaP in vitro; cited from earlier work
[11] = tested on: PC3 cell line; conditions: athymic nude mice; cited from earlier work
[12] = displacement of [3H] 8-OHDPAT, CHO cells stably transfected with the human 5-HT1A receptor, read-out: 5-HT1A Affinity (IC50)

| Compound | IC50 [3, 12] | IC50 [4] | further results |
| --- | --- | --- | --- |
| O=C1CC2(CCCC2)CC(=O)N1CCCCN1CCN(c2ncccn2)CC1 [Buspirone, buspirone] |  |  | antidepressant activity [1]: weak antidepressant activity |
| CN(C(=O)C1(C)CCCCC1)[C@H](CC1CCCCC1)CN1CCN(c2cccc3c2OCCO3)CC1 [Example 6, 1-Methyl-cyclohexanecarboxylic Acid {(1R)-1-Cyclohexylmethyl-2-[4-(2,3-dihydro-benzo[1,4]dioxin-5-yl)-piperazin-1-yl]-ethyl}-methyl-amide] | 6.92 nM | 7.3 nM |  |
| CN(C(=O)C1CCCCC1)[C@H](CC1CCCCC1)CN1CCN(c2cccc3[nH]ccc23)CC1 [Example 7, Cyclohexanecarboxylic Acid {(1R)-1-Cyclohexylmethyl-2-[4-(1H-indol-4-yl)-piperazin-1-yl]-ethyl}-methyl-amide] | 8.84 nM | 10.5 nM |  |
| CN(C(=O)C1(C)CCCCC1)[C@H](CC1CCCCC1)CN1CCN(c2cccc3[nH]ccc23)CC1 [Example 8] | 32.7 nM |  |  |
| COc1cccc(N2CCN(C[C@H](CC3CCCCC3)NC(=O)C3CCCCC3)CC2)n1 [Example 12, Cyclohexane Carboxylic Acid {(1S)-1-Cyclohexylmethyl-2-[4-(6methoxypyridin-2-yl)-piperazin-1-yl]-ethyl}-amide] | 4.14 nM |  | EC50 [2]: 14.8 nM |
| COc1ccccc1C1CCN(C[C@@H](CC2CCCCC2)NC(=O)C2(C)CCCCC2)CC1 [Example 16, 1-Methyl-cyclohexanecarboxylic acid {(1R)-1-cyclohexylmethyl-2-[4-(2-methoxyphenyl)-piperidin-1-yl]-ethyl}-amide] | 5.97 nM | 46 nM |  |
| COc1ccccc1C1CCN(C[C@@H](CC2CCCCC2)N(C)C(=O)C2(C)CCCCC2)CC1 [Example 18, 1-Methyl-cyclohexanecarboxylic Acid {(1R)-1-Cyclohexylmethyl-2-[4-(2-methoxypheniyl)-piperidin-1-yl]-ethyl}-methyl-amide] | 5.33 nM | 97.5 nM |  |
| COc1ccccc1C1CCN(C[C@@H](CC2CCCCC2)N(C)C(=O)C(C)(C)C)CC1 [Example 20, N-{(1R)-1-Cyclohexylmethyl-2-[4-(2-methoxyphenyl)-piperidin-1-yl]-ethyl}-2,2,N-trimethyl-propionamide] | 5 nM |  |  |
| COc1ccccc1C1=CCN(C[C@@H](CC2CCCCC2)NC(=O)C2(C)CCCCC2)CC1 [Example 21, 1-Methyl-cyclohexanecarboxylic Acid {(1R)-1-Cyclohexylmethyl-2-[4-(2-methoxyphenyl)-3,6-dihydro-2H-pyridin-1-yl]-ethyl}-amide] |  | 45.5 nM | IC50 [3]: 2.75 nM |
| O=C(NCCN1CCN(c2cccc3c2OC[C@H](CO)O3)CC1)c1ccc(F)cc1 [Flesinoxan] |  |  | antiemetic activity in animal models [5]: particularly active |
| COc1ccccc1N1CCN(CCCCN2C(=O)c3ccccc3C2=O)CC1 [NAN-190] |  |  | effect on LTP [6]: augment LTP |
| COc1ccccc1N1CCN(CC(C(=O)NC(C)(C)C)c2ccccc2)CC1 (centres unmarked) [WAY-100135] |  |  | effect on impairment of spatial learning [7]: prevented the impairment of spatial learning |
| COc1ccccc1N1CCN(CCN(C(=O)C2CCCCC2)c2ccccn2)CC1 [WAY-100635] |  |  | effect on cognitive deficits induced by fornix lesions [8]: reversed the cognitive deficits |
| CC(C)NCC(O)COc1cccc2[nH]ccc12 (centres unmarked) [pindolol] |  |  | median time needed to achieve a sustained antidepressant response [9]: significantly reduced the median time |
| pindobind |  |  | antineoplastic activity in vitro [10]: antineoplastic activity; growth of PC3 cell line in vivo [11]: inhibited the growth |

Further compounds by falling IC50 [3, 12], results first:

| IC50 [3, 12] | IC50 [4] | Compound | further results |
| --- | --- | --- | --- |
| 2.96 nM |  | O=C(N[C@H](CC1CCCCC1)CN1CCN(c2nc3ccccc3s2)CC1)C1CCCCC1 [Example 13, Cyclohexanecarboxylic Acid {(1R)-1-Cyclohexylmethyl-2-[4-(benzothiazol-2-yl)-piperazin-1-yl]-ethyl}-amide] | EC50 [2]: 4.8 nM |
| 2.82 nM | 10.2 nM | COc1ccccc1N1CCN(C[C@@H](CC2CCCCC2)N(C)C(=O)C2(C)CCCCC2)CC1 [Example 4, 1-Methyl-cyclohexanecarboxylic Acid {(1R)-1-Cyclohexylmethyl-2-[4-(2-methoxyphenyl)-piperazin-1-yl]-ethyl}-methyl-amide] |  |
| 2.4 nM |  | O=C(N[C@H](CC1CCCCC1)CN1CCN(c2ncccn2)CC1)C1CCC1 [Example 11, Cyclobutane Carboxylic Acid {(1R)-1-Cyclohexylmethyl-2-[4-(pyrimidin-2-yl)-piperazin-1-yl]-ethyl}-amide] | EC50 [2]: 21.7 nM |
| 2.37 nM | 4.6 nM | CN(C(=O)C1CCCCC1)[C@H](CC1CCCCC1)CN1CCN(c2cccc3c2OCCO3)CC1 [Example 5] |  |
| 2.19 nM | 40 nM | COc1ccccc1C1CCN(C[C@@H](CC2CCCCC2)NC(=O)C(C)(C)C)CC1 [Example 19, N-{(1R)-1-Cyclohexylmethyl-2-[4-(2-methoxyphenyl)-piperidin-1-yl]-ethyl}-2,2-dimethyl-propionamide] |  |
| 1.69 nM |  | O=C(N[C@H](CC1CCCCC1)CN1CCN(c2nccc3ccccc23)CC1)C1CCCCC1 [Example 14, Cyclohexanecarboxylic Acid {(1R)-1-Cyclohexylmethyl-2-[4-(isoquinolin-1-yl)-piperazin-1-yl]-ethyl}-amide] |  |
| 1.69 nM | 91.5 nM | COc1ccccc1C1CCN(C[C@@H](CC2CCCCC2)N(C)C(=O)C2CCCCC2)CC1 [Example 17, Cyclohexanecarboxylic Acid {(1R)-1-Cyclohexylmethyl-2-[4-(2-methoxyphenyl)-piperidin-1-yl]-ethyl}-methyl-amide] |  |
| 1.49 nM | 17.3 nM | COc1ccccc1N1CCN(C[C@@H](CC2CCCCC2)NC=O)CC1 [Example 9, N-{(1R)-1-Cyclohexylmethyl-2-[4-(2-methoxyphenyl)-piperazin-1-yl]-ethyl}-formamide] |  |
| 1.46 nM | 4 nM | COc1ccccc1N1CCN(C[C@@H](CC2CCCCC2)N(C)C(=O)C2CCCCC2)CC1 [Example 3, Cyclohexanecarboxylic Acid {(1R)-1-Cyclohexylmethyl-2-[4-(2-methoxyphenyl)-piperazin-1-yl]-ethyl}-methyl-amide] |  |
| 1.23 nM | 14.6 nM | COc1ccccc1N1CCN(C[C@@H](CC2CCCCC2)NC(=O)C2(C)CCCCC2)CC1 [Example 2, 1-Methyl-cyclohexanecarboxylic Acid of {(1R)-1-Cyclohexylmethyl-2-[4-(2-methoxyphenyl)-piperazin-1-yl]-ethyl}-amide] |  |
| 1.08 nM |  | COc1ccccc1C1CCN(C[C@@H](CC2CCCCC2)NC(=O)C2CCCCC2)CC1 [Example 15, Cyclohexanecarboxylic Acid {(1R)-1-Cyclohexylmethyl-2-[4-(2-methoxyphenyl)-piperidin-1-yl]-ethyl}-amide] | EC50 [2]: 3.9 nM |
| 0.71 nM |  | O=C(N[C@H](CC1CCCCC1)CN1CCN(c2ncccn2)CC1)C1CCCCC1 [Example 10, Cyclohexanecarboxylic Acid {(1R)-1-Cyclohexylmethyl-2-[4-(pyrimidin-2-yl)-piperazin-1-yl]-ethyl}-amide] | EC50 [2]: 1.3 nM |
| 0.57 nM |  | COc1ccccc1N1CCN(C[C@@H](CC2CCCCC2)NC(=O)C2CCCCC2)CC1 [Example 1, Cyclohexanecarboxylic Acid {(1R)-1-Cyclohexylmethyl-2-[4-(2-methoxyphenyl)-piperazin-1-yl]-ethyl}-amide] | EC50 [2]: 0.5 nM |
